# Measured values reported in US11524968B2, “Heterocyclic compound as a protein kinase inhibitor” (HK inno.N Corporation, priority 2017, dated 2022).
# Biological target: JAK1 (Homo sapiens (Human), UniProt P23458)
# Assay: Analysis of JAK1 activity inhibition ability (ADP-Glo Kinase Assay)
# Format: biochemical
# Conditions: JAK1 enzyme, ADP-Glo luminescence, ATP 250 uM, IRS-itide substrate, 30° C. 40 minutes; read-out: IC50
# Outline: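 ADP-Glo luminescence read-out of ADP production, with IC50 taken as the concentration halving JAK1 activity relative to control. Enzyme was incubated 40 min at 30 °C with compound, IRS-itide (40 ng/mL) and ATP (250 uM), concentrations as prepared in pH 7.5 Tris-HCl/MgCl2/BSA/DTT buffer.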
# Sequence of JAK1 (P23458 whole entry): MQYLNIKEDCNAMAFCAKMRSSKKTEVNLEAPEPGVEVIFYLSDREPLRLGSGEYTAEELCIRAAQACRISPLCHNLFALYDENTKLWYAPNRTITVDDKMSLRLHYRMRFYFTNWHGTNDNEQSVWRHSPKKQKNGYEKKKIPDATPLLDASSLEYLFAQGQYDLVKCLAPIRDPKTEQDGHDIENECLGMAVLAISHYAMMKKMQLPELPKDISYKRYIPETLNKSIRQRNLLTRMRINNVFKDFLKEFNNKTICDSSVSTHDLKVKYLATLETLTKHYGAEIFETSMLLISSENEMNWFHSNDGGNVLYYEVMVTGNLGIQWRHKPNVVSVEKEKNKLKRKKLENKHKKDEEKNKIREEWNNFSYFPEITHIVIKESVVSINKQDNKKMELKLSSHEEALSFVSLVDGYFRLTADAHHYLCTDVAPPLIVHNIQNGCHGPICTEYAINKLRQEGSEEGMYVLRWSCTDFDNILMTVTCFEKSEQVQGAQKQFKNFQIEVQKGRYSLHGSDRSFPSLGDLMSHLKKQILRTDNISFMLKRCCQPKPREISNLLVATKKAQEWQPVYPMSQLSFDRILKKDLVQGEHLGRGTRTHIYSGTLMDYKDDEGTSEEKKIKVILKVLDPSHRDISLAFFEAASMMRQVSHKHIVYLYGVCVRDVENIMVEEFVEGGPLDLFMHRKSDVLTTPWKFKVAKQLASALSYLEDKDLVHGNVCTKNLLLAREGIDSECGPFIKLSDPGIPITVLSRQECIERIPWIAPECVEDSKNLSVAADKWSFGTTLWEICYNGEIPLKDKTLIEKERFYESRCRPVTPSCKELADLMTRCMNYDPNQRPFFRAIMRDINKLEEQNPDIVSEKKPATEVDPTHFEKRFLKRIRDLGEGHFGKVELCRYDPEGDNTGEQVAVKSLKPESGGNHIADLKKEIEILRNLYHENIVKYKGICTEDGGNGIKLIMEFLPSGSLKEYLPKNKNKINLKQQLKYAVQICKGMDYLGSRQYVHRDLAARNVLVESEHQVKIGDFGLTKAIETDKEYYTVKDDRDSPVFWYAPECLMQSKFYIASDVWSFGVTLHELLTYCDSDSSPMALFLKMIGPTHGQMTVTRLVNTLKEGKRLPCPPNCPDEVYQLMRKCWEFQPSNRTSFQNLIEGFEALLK
row,Compound,IC50 [nM]
1,"CCS(=O)(=O)Nc1ccc(-c2cc(NC(=O)C3CC3)nc3c2ccn3C)cc1F [Example 60, N-(4-(4-(ethylsulfonamido)-3-fluorophenyl)-1-methyl-1H-pyrrolo[2,3-b]pyridin-6-yl)cyclopropanecarboxamide]",> 200
2,"O=C(CCC(F)(F)F)NC1CC=C(c2cc(NC(=O)C3CC3)nc3[nH]ccc23)CC1 (stereo not shown) [Example 248, N-(4-(4-(4,4,4-trifluorobutanamido)cyclohex-1-en-1-yl)-1H-pyrrolo[2,3-b]pyridin-6-yl)cyclopropanecarboxamide]",> 200
3,"CCc1cc(-c2cc(NC(=O)C3CC3)nc3[nH]ccc23)ccc1NS(=O)(=O)C1CCC1 [Example 128, N-(4-(4-(cyclobutanesulfonamido)-3-ethylphenyl)-1H-pyrrolo[2,3-b]pyridin-6-yl)cyclopropanecarboxamide]",< 20
4,"CC1CN(C(=O)c2ccc(-c3ccc(F)cc3F)[nH]c2=O)CC=C1c1cc(NC(=O)C2CC2)nc2[nH]ccc12 (stereo not shown) [Example 317, N-(4-(1-(6-(2,4-difluorophenyl)-2-oxo-1,2-dihydropyridine-3-carbonyl)-3-methyl-1,2,3,6-tetrahydropyridin-4-yl)-1H-pyrrolo[2,3-b]pyridin-6-yl)cyclopropanecarboxamide]",> 200
5,"CC(C)(C#N)CCS(=O)(=O)Nc1ccc(-c2cc(NC(=O)C3CC3)nc3[nH]ccc23)cc1F [Example 87, N-(4-(4-((3-cyano-3-methylbutyl)sulfonamido)-3-fluorophenyl)-1H-pyrrolo[2,3-b]pyridin-6-yl)cyclopropanecarboxamide]",20 to 200
6,"CCCCNC(=O)N1C2C=C(c3cc(NC(=O)C4CC4)nc4[nH]ccc34)CC1CC2 (stereo not shown) [Example 449, N-butyl-3-(6-(cyclopropanecarboxamido)-1H-pyrrolo[2,3-b]pyridin-4-yl)-8-azabicyclo[3.2.1]oct-2-ene-8-carboxamide]",20 to 200
7,"O=C(Nc1cc(C2=CCC(NS(=O)(=O)C3CCC3)CC2)c2cc[nH]c2n1)C1CC1 (stereo not shown) [Example 165, N-(4-(4-(cyclobutanesulfonamido)cyclohex-1-en-1-yl)-1H-pyrrolo[2,3-b]pyridin-6-yl)cyclopropanecarboxamide]",< 20
8,"Cc1c(NC(=O)C2CC2)nc2[nH]ccc2c1C1=CCN(C(=O)CC#N)CC1 [Example 289, N-(4-(1-(2-cyanoacetyl)-1,2,3,6-tetrahydropyridin-4-yl)-5-methyl-1H-pyrrolo[2,3-b]pyridin-6-yl)cyclopropanecarboxamide]",> 200
9,"N#CC1(CS(=O)(=O)NC2CC=C(c3cc(NC(=O)C4CC4)nc4[nH]ccc34)CC2)CC1 (stereo not shown) [Example 157, N-(4-(4-(((1-cyanocyclopropyl)methyl)sulfonamido)cyclohex-1-en-1-yl)-1H-pyrrolo[2,3-b]pyridin-6-yl)cyclopropanecarboxamide]",< 20
10,"O=C(Nc1nc(-c2ccc(NS(=O)(=O)c3cccc(F)c3)cc2)c2cc[nH]c2n1)C1CC1 [Example 192, N-(4-(4-((3-fluorophenyl)sulfonamido)phenyl)-7H-pyrrolo[2,3-d]pyrimidin-2-yl)cyclopropanecarboxamide]",< 20
11,"N#CCC1(CS(=O)(=O)Nc2cc(F)c(-c3cc(NC(=O)C4CC4)nc4[nH]ccc34)cc2F)CC1 [Example 106, N-(4-(4-(((1-(cyanomethyl)cyclopropyl)methyl)sulfonamido)-2,5-difluorophenyl)-1H-pyrrolo[2,3-b]pyridin-6-yl)cyclopropanecarboxamide]",< 20
12,"COc1ccc(C(=O)N2CC=C(c3cc(NC(=O)C4CC4)nc4[nH]ccc34)C(C)C2)cc1OC (stereo not shown) [Example 329, N-(4-(1-(3,4-dimethoxybenzoyl)-3-methyl-1,2,3,6-tetrahydropyridin-4-yl)-1H-pyrrolo[2,3-b]pyridin-6-yl)cyclopropanecarboxamide]",20 to 200
13,"O=C(Nc1cc(-c2ccc(NS(=O)(=O)C3CC3)c(F)c2)c2cc[nH]c2n1)C1CC1 [Example 69, N-(4-(4-(cyclopropanesulfonamido)-3-fluorophenyl)-1H-pyrrolo[2,3-b]pyridin-6-yl)cyclopropanecarboxamide]",< 20
14,"O=C(Nc1cc(-c2ccc(NS(=O)(=O)C3CCCCC3)c(F)c2)c2cc[nH]c2n1)C1CC1 [Example 68, N-(4-(4-(cyclohexanesulfonamido)-3-fluorophenyl)-1H-pyrrolo[2,3-b]pyridin-6-yl)cyclopropanecarboxamide]",< 20
15,"Cc1c(NC(=O)C2CC2)nc2[nH]ccc2c1C1=CCN(C(=O)CC(F)(F)F)CC1 [Example 290, N-(5-methyl-4-(1-(3,3,3-trifluoropropanoyl)-1,2,3,6-tetrahydropyridin-4-yl)-1H-pyrrolo[2,3-b]pyridin-6-yl)cyclopropanecarboxamide]",> 200

# Results, then the molecule that gave them:
row,IC50 [nM],Compound
1,20 to 200,"N#CCC(=O)N1CCC=C(c2cc(NC(=O)C3CC3)nc3[nH]ccc23)C1 [Example 420, N-(4-(1-(2-cyanoacetyl)-1,2,5,6-tetrahydropyridin-3-yl)-1H-pyrrolo[2,3-b]pyridin-6-yl)cyclopropanecarboxamide]"
2,> 200,"N#CCCC(=O)N1CC=C(c2cc(NC(=O)C3CC3)nc3[nH]ccc23)C1 [Example 427, N-(4-(1-(3-cyanopropanoyl)-2,5-dihydro-1H-pyrrol-3-yl)-1H-pyrrolo[2,3-b]pyridin-6-yl)cyclopropanecarboxamide]"
3,20 to 200,"CC1CN(C(=O)c2ccc(Cl)nc2)CC=C1c1cc(NC(=O)C2CC2)nc2[nH]ccc12 (stereo not shown) [Example 335, N-(4-(1-(6-chloronicotinoyl)-3-methyl-1,2,3,6-tetrahydropyridin-4-yl)-1H-pyrrolo[2,3-b]pyridin-6-yl)cyclopropanecarboxamide]"
4,> 200,"O=C(Nc1cc(-c2ccc(CC(=O)N3CCN(S(=O)(=O)NCC(F)(F)F)CC3)cc2)c2cc[nH]c2n1)C1CC1 [Example 566, (N-(4-(4-(2-oxo-2-(4-(N-(2,2,2-trifluoroethyl)sulfamoyl)piperazin-1-yl)ethyl)phenyl)-1H-pyrrolo[2,3-b]pyridin-6-yl)cyclopropanecarboxamide)]"
5,> 200,"Cc1cnc(C(=O)N2CC=C(c3cc(NC(=O)C4CC4)nc4[nH]ccc34)C(C)C2)cn1 (stereo not shown) [Example 344, N-(4-(3-methyl-1-(5-methylpyrazine-2-carbonyl)-1,2,3,6-tetrahydropyridin-4-yl)-1H-pyrrolo[2,3-b]pyridin-6-yl)cyclopropanecarboxamide]"
6,> 200,"CCS(=O)(=O)N1CC(CC#N)(N2CCN(c3cc(NC(=O)C4CC4)nc4[nH]ccc34)CC2)C1 [Example 700, N-(4-(4-(3-(cyanomethyl)-1-(ethylsulfonyl)azetidin-3-yl)piperazin-1-yl)-1H-pyrrolo[2,3-b]pyridin-6-yl)cyclopropanecarboxamide]"
7,20 to 200,"O=C(Cc1ccc(-c2cc(NC(=O)C3CC3)nc3[nH]ccc23)cc1)Nc1ccon1 [Example 544, N-(4-(4-(2-(isoxazol-3-ylamino)-2-oxoethyl)phenyl)-1H-pyrrolo[2,3-b]pyridin-6-yl)cyclopropanecarboxamide]"
8,20 to 200,"CC1CN(C(=O)c2ccnc(C#N)c2)CC=C1c1cc(NC(=O)C2CC2)nc2[nH]ccc12 (stereo not shown) [Example 392, N-(4-(1-(2-cyanoisonicotinoyl)-3-methyl-1,2,3,6-tetrahydropyridin-4-yl)-1H-pyrrolo[2,3-b]pyridin-6-yl)cyclopropanecarboxamide]"
9,20 to 200,"N#CCC1(N2CC=C(c3cc(NC(=O)C4CC4)nc4[nH]ccc34)CC2)CN(C2CCN(C(=O)c3nc(C(F)(F)F)cs3)CC2)C1 [Example 621, N-(4-(1-(3-(cyanomethyl)-1-(1-(4-(trifluoromethyl)thiazole-2-carbonyl)piperidin-4-yl)azetidin-3-yl)-1,2,3,6-tetrahydropyridin-4-yl)-1H-pyrrolo[2,3-b]pyridin-6-yl)cyclopropanecarboxamide]"
10,< 20,"C[C@@H]1CN(C(=O)c2ccnc(Cl)c2)CC=C1c1cc(NC(=O)C2CC2)nc2[nH]ccc12 [Example 399, (S)—N-(4-(1-(2-chloroisonicotinoyl)-3-methyl-1,2,3,6-tetrahydropyridin-4-yl)-1H-pyrrolo[2,3-b]pyridin-6-yl)cyclopropanecarboxamide]"
11,< 20,"C[C@@H]1C=C(c2cc(NC(=O)C3CC3)nc3[nH]ccc23)CCN1C(=O)CC#N [Example 388, (R)—N-(4-(1-(2-cyanoacetyl)-6-methyl-1,2,3,6-tetrahydropyridin-4-yl)-1H-pyrrolo[2,3-b]pyridin-6-yl)cyclopropanecarboxamide]"
12,20 to 200,"CCS(=O)(=O)N1CC(n2cc(-c3cc(NC(=O)C4CC4)nc4[nH]ccc34)cn2)C1 [Example 601, N-(4-(1-(1-(ethylsulfonyl)azetidin-3-yl)-1H-pyrazol-4-yl)-1H-pyrrolo[2,3-b]pyridin-6-yl)cyclopropanecarboxamide]"
13,20 to 200,"CC(C)=C(C#N)C(=O)N1CC=C(c2cc(NC(=O)C3CC3)nc3[nH]ccc23)[C@H](C)C1 [Example 408, (S)—N-(4-(1-(2-cyano-3-methylbut-2-enoyl)-3-methyl-1,2,3,6-tetrahydropyridin-4-yl)-1H-pyrrolo[2,3-b]pyridin-6-yl)cyclopropanecarboxamide]"
14,20 to 200,"CCS(=O)(=O)Nc1ccc(-c2nc(Nc3ccccc3)nc3[nH]ccc23)cc1F [Example 719, N-(2-fluoro-4-(2-(phenylamino)-7H-pyrrolo[2,3-d]pyrimidin-4-yl)phenyl)ethanesulfonamide]"
15,20 to 200,"CC1CN(C(=O)c2cccc(Br)c2)CC=C1c1cc(NC(=O)C2CC2)nc2[nH]ccc12 (stereo not shown) [Example 334, N-(4-(1-(3-bromobenzoyl)-3-methyl-1,2,3,6-tetrahydropyridin-4-yl)-1H-pyrrolo[2,3-b]pyridin-6-yl)cyclopropanecarboxamide]"
16,20 to 200,"CC1(C)CC(c2cc(NC(=O)C3CC3)nc3[nH]ccc23)=CCN1C(=O)CC#N [Example 387, N-(4-(1-(2-cyanoacetyl)-2,2-dimethyl-1,2,3,6-tetrahydropyridin-4-yl)-1H-pyrrolo[2,3-b]pyridin-6-yl)cyclopropanecarboxamide]"
